Each structure is given as a SMILES string.

In this test the test system is Felis catus. In words: Inhibition of cat cardiac response to cardioaccelerator nerve stimulation, when administered intravenously. The format is functional. The following applies: iv, read-out: ID50 (the source's name).
On to `CCCN(CCC)C1CCc2c(ccc(C)c2O)C1` (centres undefined), for which the ED50 stood at 0.25 µmol/kg.

Consider `CCCN(CCC)C1CCc2cc(C)c(O)cc2C1` (centres undefined), for which the ED50 is 0.54 µmol/kg.

Turning to `CCCN(CCC)C1CCc2cc(O)c(C)cc2C1` (centres undefined), the ED50 turned out to be 1.75 µmol/kg.

For `CN1CCc2cccc3c2[C@H]1Cc1ccc(O)c(O)c1-3` [APOMORPHINE], the ED50 is 0.035 µmol/kg.
